Test [1] relates to Mycosphaerella graminicola; Anamorph: Septoria tritici. Briefly: Leaf blotch of wheat (SEPTTR) disease control on wheat seedlings. The format is in vivo. The conditions noted are these: Zymoseptoria tritici, Wheat Leaf Blotch; for pest or weed control at 100 ppm: high volume application; for pest or weed control at 121.5 g/ha: low volume application, 121.5 g/H. In outline:
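Wheat seedlings (Yuma, first leaf emerged) sprayed to run-off with compound in acetone/water with 110 ppm Triton X-100, or track-sprayed as EC with 0.1% Trycol 5941. Septoria tritici spores inoculated before or after treatment. Dew chambers, then 20 °C greenhouse. Percent disease control derived from severity (0–100%) relative to untreated plants.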

In test [2] the test system is Puccinia triticina; Synonym: Puccinia recondite f. sp. tritici. Description: Wheat brown rust (PUCCRT) disease control on wheat seedlings. The format is in vivo. The conditions noted are these: Puccinia triticina, Wheat Brown Rust; for pest or weed control at 100 ppm: high volume application; for pest or weed control at 121.5 g/ha: low volume application, 121.5 g/H. In outline: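 Acetone solutions diluted in nine volumes of water with 110 ppm Triton X-100 sprayed to run-off on first-leaf Yuma wheat seedlings (track spray: EC with 0.1% Trycol 5941). Puccinia triticina spores inoculated before or after treatment; overnight dark dew at 22° C., 100% RH, then greenhouse at 24° C. for disease development.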

[3] abbreviates: 24 h, 1 Day Protectant, read-out: Disease Control SEPTTR 1 DP 100 ppm.
[4] abbreviates: 72 h, 3 Day Curative, read-out: Disease Control SEPTTR 3 DC 100 ppm.
Setting [5] is: 24 h, 1 Day Protectant, read-out: Disease Control PUCCRT 1 DP 100 ppm.
[6] abbreviates: 72 h, 3 Day Curative, read-out: Disease Control PUCCRT 3 DC 100 ppm.
The mark [7] stands for this setting: 24 h, 1 Day Protectant, read-out: Disease Control SEPTTR 1 DP 121.5 g/H.
[8] abbreviates: 72 h, 3 Day Curative, read-out: Disease Control SEPTTR 3 DC 121.5 g/H.
Setting [9] is: 24 h, 1 Day Protectant, read-out: Disease Control PUCCRT 1 DP 121.5 g/H.
[10] abbreviates: 72 h, 3 Day Curative, read-out: Disease Control PUCCRT 3 DC 121.5 g/H.

Like-named read-outs stand apart in the source and are kept apart here.

Consider `COc1ccnc(C(=O)N[C@H]2CCC[C@H](OCC(C)C)[C@@H](OC)[C@H](C)OC2=O)c1O` [F247], for which the pest or weed control at 100 ppm lay in the range of 80 to 100% in test [1] (setting [3]), 0 to 80% in test [1] (setting [4]), 80 to 100% in test [2] (setting [5]) and 80 to 100% in test [2] (setting [6]).
For the compound `COc1ccnc(C(=O)N[C@H]2CCC[C@H](Oc3ccccc3)[C@@H](OC)[C@H](C)OC2=O)c1O` [F249], the pest or weed control at 100 ppm in test [1] (setting [3]) was 0 to 80%; in test [1] (setting [4]), 0 to 80%; in test [2] (setting [5]) it was 80 to 100%; in test [2] (setting [6]), 80 to 100%.
Turning to `C=C(C)CO[C@H]1CCC[C@H](NC(=O)c2nccc(OC)c2OC(C)=O)C(=O)O[C@@H](C)[C@@H]1OC` [F256], the pest or weed control at 121.5 g/ha in test [1] (setting [7]) was less than 0%; in test [1] (setting [8]), 0 to 80%; in test [2] (setting [9]) it was 0 to 80%; in test [2] (setting [10]), 80 to 100%.
Regarding `COc1ccnc(C(=O)N[C@H]2CCC[C@H](OCC(C)C)[C@@H](OC)[C@H](C)OC2=O)c1OC(C)=O` [F257], the pest or weed control at 121.5 g/ha in test [1] (setting [7]), in test [1] (setting [8]), in test [2] (setting [9]) and in test [2] (setting [10]) was 80 to 100% throughout.
For `COc1ccnc(C(=O)N[C@H]2CCC[C@H](Oc3ccccc3)[C@@H](OC)[C@H](C)OC2=O)c1OC(C)=O` [F258], the pest or weed control at 121.5 g/ha lay in the range of 0 to 80% in test [1] (setting [7]), 0 to 80% in test [1] (setting [8]), 80 to 100% in test [2] (setting [9]) and 80 to 100% in test [2] (setting [10]).
`COCCC(=O)Oc1c(OC)ccnc1C(=O)N[C@H]1CCC[C@H](OCC(C)C)[C@@H](OC)[C@H](C)OC1=O` [F259]: the pest or weed control at 121.5 g/ha in test [1] (setting [7]) was less than 0%; in test [1] (setting [8]), 80 to 100%; in test [2] (setting [9]), 80 to 100%; in test [2] (setting [10]) it was 80 to 100%.
Regarding `COCCC(=O)Oc1c(OC)ccnc1C(=O)N[C@H]1CCC[C@H](Oc2ccccc2)[C@@H](OC)[C@H](C)OC1=O` [F260], the pest or weed control at 121.5 g/ha in test [1] (setting [7]) is 0 to 80%; in test [1] (setting [8]) it was 80 to 100%; in test [2] (setting [9]), 80 to 100%; in test [2] (setting [10]) it was 80 to 100%.
In the case of `CCCO[C@H]1CCC[C@H](NC(=O)c2nccc(OC)c2O)C(=O)O[C@@H](C)[C@@H]1Oc1ccc(F)cc1` [F262], the pest or weed control at 100 ppm was in the range of 80 to 100% in test [1] (setting [3]), 80 to 100% in test [1] (setting [4]), 0 to 80% in test [2] (setting [5]) and 80 to 100% in test [2] (setting [6]).
Consider `CCCO[C@H]1[C@H](C)OC(=O)[C@@H](NC(=O)c2nccc(OC)c2O)CCC[C@@H]1Oc1ccc(F)cc1` [F264], for which the pest or weed control at 100 ppm in test [1] (setting [3]) lay in the range of 80 to 100%; in test [1] (setting [4]) it was 0 to 80%; in test [2] (setting [5]) it was 0 to 80%; in test [2] (setting [6]), 80 to 100%.
In the case of `CCCO[C@H]1CCC[C@H](NC(=O)c2nccc(OC)c2OCOC(C)=O)C(=O)O[C@@H](C)[C@@H]1Oc1ccc(F)cc1` [F265], the pest or weed control at 100 ppm in test [1] (setting [3]), in test [1] (setting [4]), in test [2] (setting [5]) and in test [2] (setting [6]) was 80 to 100% each time. Also, the results for the pest or weed control at 121.5 g/ha in test [1] (setting [7]), in test [2] (setting [9]) and in test [2] (setting [10]) were 80 to 100%, 80 to 100% and 0 to 80%, respectively.
On to `CCCO[C@H]1CCC[C@H](NC(=O)c2nccc(OC)c2OC(C)=O)C(=O)O[C@@H](C)[C@@H]1Oc1ccc(F)cc1` [F266], for which the pest or weed control at 121.5 g/ha in test [1] (setting [7]), in test [2] (setting [9]) and in test [2] (setting [10]) was 80 to 100% each time.
On to `CCCO[C@H]1[C@H](C)OC(=O)[C@@H](NC(=O)c2nccc(OC)c2OCOC(C)=O)CCC[C@@H]1Oc1ccc(F)cc1` [F267], for which the pest or weed control at 100 ppm in test [1] (setting [3]), in test [1] (setting [4]), in test [2] (setting [5]) and in test [2] (setting [6]) was 80 to 100% each time.
Turning to `CCCO[C@H]1CCC[C@H](NC(=O)c2nccc(OC)c2O)C(=O)O[C@@H](C)[C@@H]1Oc1ccc(OC)cc1` [F270], the pest or weed control at 100 ppm in test [1] (setting [3]) is 80 to 100%; in test [1] (setting [4]), 0 to 80%; in test [2] (setting [5]), 80 to 100%; in test [2] (setting [6]), 80 to 100%.
Turning to `CCCO[C@H]1CCC[C@H](NC(=O)c2nccc(OC)c2O)C(=O)O[C@@H](C)[C@@H]1Oc1cccc(F)c1` [F271], the pest or weed control at 100 ppm in test [1] (setting [3]), in test [1] (setting [4]), in test [2] (setting [5]) and in test [2] (setting [6]) was 80 to 100% in each case.
On to `CCCO[C@H]1CCC[C@H](NC(=O)c2nccc(OC)c2O)C(=O)O[C@@H](C)[C@@H]1Oc1cccc(Cl)c1` [F272], for which the pest or weed control at 100 ppm in test [1] (setting [3]), in test [1] (setting [4]), in test [2] (setting [5]) and in test [2] (setting [6]) was 80 to 100% in each case.
As for `CCCO[C@H]1CCC[C@H](NC(=O)c2nccc(OC)c2O)C(=O)O[C@@H](C)[C@@H]1Oc1ccc(Br)cc1` [F273], the pest or weed control at 100 ppm in test [1] (setting [3]) lay in the range of 80 to 100%; in test [1] (setting [4]), 0 to 80%; in test [2] (setting [5]) it was 80 to 100%; in test [2] (setting [6]), 80 to 100%.
For `CCCO[C@H]1CCC[C@H](NC(=O)c2nccc(OC)c2OC(C)=O)C(=O)O[C@@H](C)[C@@H]1Oc1ccc(OC)cc1` [F274], the pest or weed control at 100 ppm in test [1] (setting [3]), in test [1] (setting [4]), in test [2] (setting [5]) and in test [2] (setting [6]) was 80 to 100% throughout. The pest or weed control at 121.5 g/ha is 80 to 100% in test [1] (setting [7]), 80 to 100% in test [1] (setting [8]), 80 to 100% in test [2] (setting [9]) and 0 to 80% in test [2] (setting [10]).
With `CCCO[C@H]1CCC[C@H](NC(=O)c2nccc(OC)c2OC(C)=O)C(=O)O[C@@H](C)[C@@H]1Oc1cccc(F)c1` [F275], the pest or weed control at 100 ppm in test [1] (setting [3]), in test [1] (setting [4]), in test [2] (setting [5]) and in test [2] (setting [6]) was 80 to 100% in each case. Moreover, the pest or weed control at 121.5 g/ha in test [1] (setting [7]), in test [1] (setting [8]), in test [2] (setting [9]) and in test [2] (setting [10]) was 80 to 100% each time.
As to `CCCO[C@H]1[C@H](C)OC(=O)[C@@H](NC(=O)c2nccc(OC)c2O)CCC[C@@H]1Oc1cccc(F)c1` [F280], the pest or weed control at 100 ppm lay within 80 to 100% in test [1] (setting [3]), 80 to 100% in test [1] (setting [4]), 80 to 100% in test [2] (setting [5]) and 0 to 80% in test [2] (setting [6]).
In the case of `CCCO[C@H]1[C@H](C)OC(=O)[C@@H](NC(=O)c2nccc(OC)c2O)CCC[C@@H]1Oc1cc(C)cc(C)c1` [F281], the pest or weed control at 100 ppm was in the range of 0 to 80% in test [1] (setting [3]), 0 to 80% in test [1] (setting [4]), 80 to 100% in test [2] (setting [5]) and 0 to 80% in test [2] (setting [6]).

The record behind these values is patent US9681664B2, “Macrocyclic picolinamides as fungicides” (Dow Agrosciences LLC, priority 2012, dated 2017).
